Earlier results as cited in patent US8883831B2, “Compositions and methods for minimizing or reversing agonist-induced desensitization” (PharmoRx Therapeutics, Inc., priority 2008, dated 2014).

Columns and labels:
[1] = test system: chronic pain model in intact rodents; details: ultra-low dose, absence of exogenously administered opioid agonists
[2] = molecular target: pentapeptide segment at the carboxy terminal of Filamin A (Homo sapiens, UniProt P21333); details: read-out: binding affinity
Sequence of pentapeptide segment at the carboxy terminal of Filamin A (P21333 whole entry): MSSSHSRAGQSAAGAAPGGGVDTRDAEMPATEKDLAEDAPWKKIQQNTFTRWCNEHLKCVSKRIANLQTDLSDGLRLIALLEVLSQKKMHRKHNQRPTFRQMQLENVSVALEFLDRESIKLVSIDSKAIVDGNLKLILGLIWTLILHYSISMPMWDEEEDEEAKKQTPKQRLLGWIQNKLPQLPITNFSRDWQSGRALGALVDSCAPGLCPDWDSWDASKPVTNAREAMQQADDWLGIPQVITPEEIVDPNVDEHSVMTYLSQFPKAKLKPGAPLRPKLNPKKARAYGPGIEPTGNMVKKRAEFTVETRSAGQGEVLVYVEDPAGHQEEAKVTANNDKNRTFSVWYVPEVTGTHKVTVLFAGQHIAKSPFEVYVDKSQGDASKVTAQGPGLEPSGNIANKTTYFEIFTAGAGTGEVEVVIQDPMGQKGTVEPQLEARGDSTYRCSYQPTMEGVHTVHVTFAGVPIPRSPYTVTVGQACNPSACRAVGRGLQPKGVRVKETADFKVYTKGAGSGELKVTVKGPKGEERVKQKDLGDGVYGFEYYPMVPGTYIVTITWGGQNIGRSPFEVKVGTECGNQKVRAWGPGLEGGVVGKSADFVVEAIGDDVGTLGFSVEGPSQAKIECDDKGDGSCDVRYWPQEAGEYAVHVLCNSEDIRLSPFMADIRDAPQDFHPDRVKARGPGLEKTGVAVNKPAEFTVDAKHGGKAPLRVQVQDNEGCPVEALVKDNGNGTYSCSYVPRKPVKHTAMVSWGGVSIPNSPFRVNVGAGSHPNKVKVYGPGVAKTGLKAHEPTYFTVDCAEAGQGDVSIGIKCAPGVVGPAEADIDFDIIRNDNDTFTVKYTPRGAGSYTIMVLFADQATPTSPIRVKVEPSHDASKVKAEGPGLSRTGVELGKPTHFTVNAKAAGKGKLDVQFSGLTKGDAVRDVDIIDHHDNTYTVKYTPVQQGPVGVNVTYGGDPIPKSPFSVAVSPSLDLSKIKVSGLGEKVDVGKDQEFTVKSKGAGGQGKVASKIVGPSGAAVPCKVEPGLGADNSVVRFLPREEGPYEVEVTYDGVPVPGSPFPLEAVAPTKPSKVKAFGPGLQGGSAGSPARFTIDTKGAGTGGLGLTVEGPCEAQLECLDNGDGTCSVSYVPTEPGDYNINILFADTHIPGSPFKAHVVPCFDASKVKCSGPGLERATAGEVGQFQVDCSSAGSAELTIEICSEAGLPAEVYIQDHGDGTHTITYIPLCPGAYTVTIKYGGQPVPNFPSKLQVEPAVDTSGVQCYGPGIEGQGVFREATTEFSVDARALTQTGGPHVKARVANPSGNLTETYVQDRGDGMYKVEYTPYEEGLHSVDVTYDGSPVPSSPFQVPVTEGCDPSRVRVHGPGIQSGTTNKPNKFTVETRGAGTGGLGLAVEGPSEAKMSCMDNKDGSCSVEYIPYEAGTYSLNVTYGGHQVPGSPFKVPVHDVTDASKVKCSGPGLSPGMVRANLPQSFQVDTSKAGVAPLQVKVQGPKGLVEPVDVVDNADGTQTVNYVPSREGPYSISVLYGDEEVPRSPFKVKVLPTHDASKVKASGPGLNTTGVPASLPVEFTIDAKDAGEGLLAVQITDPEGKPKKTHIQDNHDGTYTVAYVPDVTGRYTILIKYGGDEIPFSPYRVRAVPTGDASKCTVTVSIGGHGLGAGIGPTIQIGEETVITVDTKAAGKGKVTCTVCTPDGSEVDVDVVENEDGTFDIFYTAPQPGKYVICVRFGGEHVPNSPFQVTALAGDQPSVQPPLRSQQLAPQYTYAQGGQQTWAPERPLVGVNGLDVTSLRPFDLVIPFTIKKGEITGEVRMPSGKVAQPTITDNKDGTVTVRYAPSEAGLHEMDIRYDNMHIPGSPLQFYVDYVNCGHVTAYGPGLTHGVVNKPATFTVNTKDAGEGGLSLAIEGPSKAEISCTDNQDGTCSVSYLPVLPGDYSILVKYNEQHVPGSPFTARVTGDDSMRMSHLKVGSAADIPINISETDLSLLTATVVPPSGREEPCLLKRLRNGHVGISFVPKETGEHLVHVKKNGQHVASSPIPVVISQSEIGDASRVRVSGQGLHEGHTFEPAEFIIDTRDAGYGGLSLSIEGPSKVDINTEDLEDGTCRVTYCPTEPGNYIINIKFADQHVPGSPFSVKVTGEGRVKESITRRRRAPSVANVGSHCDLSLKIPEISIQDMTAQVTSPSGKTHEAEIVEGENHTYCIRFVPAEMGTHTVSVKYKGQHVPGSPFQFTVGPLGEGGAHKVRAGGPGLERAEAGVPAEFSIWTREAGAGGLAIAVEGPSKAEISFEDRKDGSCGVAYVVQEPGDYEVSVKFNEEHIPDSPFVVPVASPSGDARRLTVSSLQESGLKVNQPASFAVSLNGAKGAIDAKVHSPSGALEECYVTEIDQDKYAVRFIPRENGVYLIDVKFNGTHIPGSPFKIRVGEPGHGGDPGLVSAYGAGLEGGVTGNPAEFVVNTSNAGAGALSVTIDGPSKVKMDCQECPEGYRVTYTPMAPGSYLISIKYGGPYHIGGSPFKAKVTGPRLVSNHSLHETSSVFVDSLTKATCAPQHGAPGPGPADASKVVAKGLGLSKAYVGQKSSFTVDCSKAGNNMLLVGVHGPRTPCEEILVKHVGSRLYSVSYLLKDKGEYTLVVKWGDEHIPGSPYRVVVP

O=C1CC[C@@]2(O)[C@H]3Cc4ccc(O)c5c4[C@@]2(CCN3CC2CC2)[C@H]1O5 [naltrexone]
effect in chronic pain model [1]: no effect | Kd [2]: 4 pM
